In patent publication US20200071326A1, “TAM KINASE INHIBITORS” (Syros Pharmaceuticals, Inc., priority 2017, published 2020):
pKi: −log10 of the molar value. Structures can show the parent of a compound that is named as a salt.

How the values were obtained:
[1] = target: T1, TYRO3 (Homo sapiens, UniProt Q06418); test: IMAP fluorescence polarization kinase assay, TYRO3; type: biochemical; settings: ATP 54.0 μM, enzyme 2.5 nM, 60 minutes, read-out: TYRO3 inhibitory constant (Ki)
T1 sequence (Q06418 41-890): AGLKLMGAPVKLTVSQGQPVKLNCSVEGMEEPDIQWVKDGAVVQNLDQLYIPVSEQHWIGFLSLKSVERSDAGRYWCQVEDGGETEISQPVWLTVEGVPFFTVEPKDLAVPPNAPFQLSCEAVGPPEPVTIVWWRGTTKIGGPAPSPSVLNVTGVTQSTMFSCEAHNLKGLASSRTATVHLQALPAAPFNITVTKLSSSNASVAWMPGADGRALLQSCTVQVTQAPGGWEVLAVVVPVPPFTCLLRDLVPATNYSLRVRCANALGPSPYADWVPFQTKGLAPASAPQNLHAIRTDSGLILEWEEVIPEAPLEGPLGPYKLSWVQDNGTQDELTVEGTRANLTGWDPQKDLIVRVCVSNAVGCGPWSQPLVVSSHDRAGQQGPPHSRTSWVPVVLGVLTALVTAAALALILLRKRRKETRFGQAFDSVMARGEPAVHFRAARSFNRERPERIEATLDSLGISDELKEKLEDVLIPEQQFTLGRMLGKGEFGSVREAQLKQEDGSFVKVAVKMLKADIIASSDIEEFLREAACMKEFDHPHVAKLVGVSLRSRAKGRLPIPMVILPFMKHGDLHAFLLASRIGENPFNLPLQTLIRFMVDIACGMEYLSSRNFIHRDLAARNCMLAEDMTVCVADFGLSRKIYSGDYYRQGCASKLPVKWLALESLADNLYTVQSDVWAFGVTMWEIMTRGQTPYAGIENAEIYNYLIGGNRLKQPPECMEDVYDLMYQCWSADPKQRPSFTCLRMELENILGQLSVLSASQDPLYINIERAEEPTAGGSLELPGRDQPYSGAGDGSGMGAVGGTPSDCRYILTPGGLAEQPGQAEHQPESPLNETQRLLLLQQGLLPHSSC
Protocol: (§1) Activities of compounds against each of TYRO3, AXL, and MERTK as well as against FLT3, were determined using an immobilized metal ion affinity-based fluorescence polarization (“IMAP”) assay. A fluorescently-labeled substrate peptide was phosphorylated in the kinase reaction, after which a binding solution containing large trivalent metal-based nanoparticles was added and the phosphorylated substrate binds to these beads. This reduces the rotational speed of the substrate which is then detected using fluorescence polarization as a read-out.
(§2) The substrates used for each enzyme are as follows: AXL: 5F1-KKKKEEIYFFFG-NH2(SEQ ID NO:1); FLT3: 5F1-KKKKEEIYFFF-NH2 (SEQ ID NO:2); MERTK: 5F1-EFPIYDFLPAKKK-NH2 (SEQ ID NO:3); and TYRO3: 5F1-EFPIYDFLPAKKK-NH2 (SEQ ID NO:4).
(§3) This assay was performed in a 384-well, polystyrene microplate in a final volume of 8 μl. Substrate (final concentration=400 nM), ATP (final concentrations=24.7μM for AXL; 2.74 μM for FLT3; 2.69 μM for MERTK; and 54.0 μM for TYRO3), compounds and enzyme (final concentrations=2.5 nM for AXL, FLT3 and TYRO3; 1.5 nM for MERTK) were pipetted in this order into the appropriate reaction buffer (AXL: 50 mM HEPES, pH 8.0, 1 mM DTT, 10 mM MgCl2, 0.01% BRU35, 0.01% Triton X-100; FLT3: 50 mM HEPES, pH 8.0, 1 mM DTT, 10 mM MgCl2, 0.01% Triton X-100, 0.01% NP40; MERTK/TYRO3: 50 mM HEPES, pH 8.0, 1 mM DTT, 10 mM MgCl2, 0.01% Triton X-100) and incubated at room temperature for varying times (AXL, FLT3 and MERTK: 240 minutes; TYRO3: 60 minutes). IMAP binding solution was then dispensed, the plate incubated for 60 minutes at room temperature and the fluorescence polarization measured. Data were analyzed using XLfit.

[2] = target: T2, MERTK (Homo sapiens, UniProt Q12866); test: IMAP fluorescence polarization kinase assay, MERTK; type: biochemical; settings: ATP 2.69 μM, enzyme 1.5 nM, 240 minutes, read-out: MERTK inhibitory constant (Ki)
T2 sequence (Q12866 21-999): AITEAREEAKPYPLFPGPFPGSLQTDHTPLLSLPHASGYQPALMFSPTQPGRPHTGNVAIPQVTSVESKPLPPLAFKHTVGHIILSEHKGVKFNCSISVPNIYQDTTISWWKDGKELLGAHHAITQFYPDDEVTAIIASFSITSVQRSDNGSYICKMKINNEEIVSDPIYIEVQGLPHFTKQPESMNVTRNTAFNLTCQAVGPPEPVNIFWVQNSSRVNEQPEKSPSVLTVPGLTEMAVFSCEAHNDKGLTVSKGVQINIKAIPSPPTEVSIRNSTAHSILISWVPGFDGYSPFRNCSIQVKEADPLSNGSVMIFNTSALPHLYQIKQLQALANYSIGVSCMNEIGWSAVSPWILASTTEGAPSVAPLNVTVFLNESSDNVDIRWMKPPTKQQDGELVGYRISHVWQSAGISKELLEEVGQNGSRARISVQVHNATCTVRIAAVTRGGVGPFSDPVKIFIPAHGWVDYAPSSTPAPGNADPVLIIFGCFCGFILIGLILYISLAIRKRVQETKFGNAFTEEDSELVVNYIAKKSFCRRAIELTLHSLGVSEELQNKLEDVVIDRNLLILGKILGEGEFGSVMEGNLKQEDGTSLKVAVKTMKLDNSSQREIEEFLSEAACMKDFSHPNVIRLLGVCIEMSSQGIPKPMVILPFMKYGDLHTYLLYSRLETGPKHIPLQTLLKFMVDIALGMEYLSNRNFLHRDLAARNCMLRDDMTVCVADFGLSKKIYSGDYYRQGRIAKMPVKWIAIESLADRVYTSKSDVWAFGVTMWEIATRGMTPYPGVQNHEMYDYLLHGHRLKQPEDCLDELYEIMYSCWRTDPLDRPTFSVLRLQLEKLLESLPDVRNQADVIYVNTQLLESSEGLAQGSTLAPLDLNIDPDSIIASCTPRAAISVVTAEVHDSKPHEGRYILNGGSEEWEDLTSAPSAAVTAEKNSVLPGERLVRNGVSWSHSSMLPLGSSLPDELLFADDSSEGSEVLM
Protocol: as §1, §2, §3

pKi [1] | pKi [2] | SMILES
6.00 to 7.00 | 6.00 to 7.00 | C#Cc1cc2c(N[C@H]3CC[C@H](N)CC3)c(C(=O)Nc3ccc(F)cc3)cnc2[nH]1 [Compound 128, [4-1(4-aminocyclohexyl)amino]-2-ethynyl-N-(4-fluorophenyl)-1H-pyrrolo[2,3-b]pyridine-5-carboxamide]
> 7.00 | > 7.00 | CC(C)c1cc2c(N[C@H]3CC[C@H](N)CC3)c(C(=O)NCc3ccc(-n4ccnc4)cc3)cnc2[nH]1 [Compound 129]
> 7.00 | > 7.00 | CCCc1cc2c(N[C@H]3CC[C@H](N)CC3)c(-c3ccc(COC(C)C)cn3)cnc2[nH]1 [Compound 130]
> 7.00 | 6.00 to 7.00 | CCCc1cc2c(N[C@H]3CC[C@H](N)CC3)c(-c3cc(N)ccn3)cnc2[nH]1 [Compound 131]
> 7.00 | > 7.00 | CCc1cc2c(N[C@H]3CC[C@H](N)CC3)c(C(=O)NC3CCN(c4ncccn4)CC3)cnc2[nH]1 [Compound 132]
> 7.00 | > 7.00 | CCCCCc1cc2c(N[C@H]3CC[C@H](N)CC3)c(C(=O)NCc3ccc(-n4ccnc4)cc3)cnc2[nH]1 [Compound 133]
> 7.00 | > 7.00 | CCC(C)c1cc2c(N[C@H]3CC[C@H](N)CC3)c(C(=O)Nc3ccc(F)cc3)cnc2[nH]1 (some centres unmarked) [Compound 134]
> 7.00 | > 7.00 | N[C@H]1CC[C@H](Nc2c(C(=O)Nc3ccc(F)cc3)cnc3[nH]c(C(F)(F)F)cc23)CC1 [Compound 135, 4-(((1r,4r)-4-aminocyclohexyl)amino)-N-(4-fluorophenyl)-2-(trifluoromethyl)-1H-pyrrolo[2,3-b]pyridine-5-carboxamide hydrochloride]
> 7.00 | > 7.00 | CCc1cc2c(N[C@H]3CC[C@H](N)CC3)c(C(=O)Nc3ccc(F)cc3)cnc2[nH]1 [Compound 136]
6.00 to 7.00 | 6.00 to 7.00 | CCCC(O)c1cc2c(N[C@H]3CC[C@H](N)CC3)c(Br)cnc2[nH]1 (some centres unmarked) [Compound 137]
> 7.00 | > 7.00 | N[C@H]1CC[C@H](Nc2c(C(=O)Nc3ccc(F)cc3)cnc3[nH]c(C4CCC4)cc23)CC1 [Compound 138, 4-(((1r,4r)-4-aminocyclohexyl)amino)-2-cyclobutyl-N-(4-fluorophenyl)-1H-pyrrolo[2,3-b]pyridine-5-carboxamide hydrochloride]
> 7.00 | > 7.00 | CCCc1cc2c(N[C@H]3CC[C@H](N)CC3)c(C(=O)NC)cnc2[nH]1 [Compound 139]
> 7.00 | > 7.00 | CCCc1cc2c(N[C@H]3CC[C@H](N)CC3)c(C(=O)OC)cnc2[nH]1 [Compound 140]
> 7.00 | > 7.00 | CCCc1cc2c(N[C@H]3CC[C@H](N)CC3)c(C(=O)NC3CCN(c4ncccn4)CC3)cnc2[nH]1 [Compound 141]
> 7.00 | > 7.00 | CCCc1cc2c(N[C@H]3CC[C@H](N)CC3)c(Br)cnc2[nH]1 [Compound 142]
> 7.00 | > 7.00 | CC(O)c1cc2c(N[C@H]3CC[C@H](O)CC3)c(-c3ccc(CN4CCOCC4)cn3)cnc2[nH]1 (some centres unmarked) [Compound 143]

pKi [1] | pKi [2] | SMILES
> 7.00 | > 7.00 | CCc1cc2c(N[C@H]3CC[C@H](O)CC3)c(-c3ccc(CN4CCOCC4)cn3)cnc2[nH]1 [Compound 144]
6.00 to 7.00 | 6.00 to 7.00 | COC(C)c1cc2c(N[C@H]3CC[C@H](N)CC3)c(C(=O)Nc3ccc(F)cc3)cnc2[nH]1 (some centres unmarked) [Compound 145]
> 7.00 | 6.00 to 7.00 | CCC(OC)c1cc2c(N[C@H]3CC[C@H](N)CC3)c(C(=O)Nc3ccc(F)cc3)cnc2[nH]1 (some centres unmarked) [Compound 146]
> 7.00 | 6.00 to 7.00 | CCC(CC)c1cc2c(N[C@H]3CC[C@H](N)CC3)c(C(=O)Nc3ccc(F)cc3)cnc2[nH]1 [Compound 147]
6.00 to 7.00 | 6.00 to 7.00 | CC(O)c1cc2c(N[C@H]3CC[C@H](N)CC3)c(C(=O)Nc3ccc(F)cc3)cnc2[nH]1 (some centres unmarked) [Compound 148]
> 7.00 | 6.00 to 7.00 | CCC[C@H](C)c1cc2c(N[C@H]3CC[C@H](N)CC3)c(C(=O)Nc3ccc(F)cc3)cnc2[nH]1 [Compound 149]
> 7.00 | > 7.00 | CCC[C@@H](C)c1cc2c(N[C@H]3CC[C@H](N)CC3)c(C(=O)Nc3ccc(F)cc3)cnc2[nH]1 [Compound 150]
6.00 to 7.00 | 6.00 to 7.00 | CCOC(C)c1cc2c(N[C@H]3CC[C@H](N)CC3)c(C(=O)Nc3ccc(F)cc3)cnc2[nH]1 (some centres unmarked) [Compound 152]
> 7.00 | 5.00 to 6.00 | CCCC(OC)c1cc2c(N[C@H]3CC[C@H](N)CC3)c(C(=O)Nc3ccc(F)cc3)cnc2[nH]1 (some centres unmarked) [Compound 153]
6.00 to 7.00 | 5.00 to 6.00 | CCCC(O)c1cc2c(N[C@H]3CC[C@H](N)CC3)c(C(=O)Nc3ccc(F)cc3)cnc2[nH]1 (some centres unmarked) [Compound 154]
> 7.00 | 6.00 to 7.00 | COCC(C)c1cc2c(N[C@H]3CC[C@H](N)CC3)c(C(=O)Nc3ccc(F)cc3)cnc2[nH]1 (some centres unmarked) [Compound 155]
> 7.00 | > 7.00 | CC[C@H](C)c1cc2c(N[C@H]3CC[C@H](N)CC3)c(C(=O)Nc3ccc(F)cc3)cnc2[nH]1 [Compound 156]
5.00 to 6.00 | 5.00 to 6.00 | CCC(C)c1cc2c(N[C@H]3CC[C@H](O)CC3)c(C(=O)NC3CCN(c4ncccn4)CC3)cnc2[nH]1 (some centres unmarked) [Compound 157]
> 7.00 | > 7.00 | CCC(C)c1cc2c(N[C@H]3CC[C@H](O)CC3)c(C(=O)NC3CCN(C4=NCCCN4)CC3)cnc2[nH]1 (some centres unmarked) [Compound 158]
5.00 to 6.00 | 5.00 to 6.00 | CCC(C)c1cc2c(N[C@H]3CC[C@H](O)CC3)c(-c3ccc(S(=O)(=O)N4CCOCC4)cn3)cnc2[nH]1 (some centres unmarked) [Compound 159]
